This is an account of results in EP2886535A1, “Novel veterinary isometamidium compositions and similar substances and uses thereof” (Ceva Sante Animale, priority 2013, dated 2015).

SMILES strings stand for the structures. Read-outs that look alike come from different tables or passages of the source.

In experiment [1] the test system is T. b. brucei. Put plainly: In vitro drug sensitivity test on cultured bloodstream forms, 48 h. The class given is cell-based. The conditions noted are these: for IC50: 48 h exposure, 37 °C. The text has this:
(§1) Les souches T. congolense et T. b. brucei (formes sanguines) ont été cultivées in vitro selon le protocole décrit par Baltz et al. (Embo. J. 1985, 4, 1273-1277) et Coustou et al. (PLOS Negl. Trop. Dis., 2010, 4, 618).
(§2) L'isométamidium a été synthétisé et a été purifié par HPLC (220 nm). L'analyse de sa structure a été confirmée par LC /MS et par RMN 1H et 13C et un degré de pureté de 99,7 % a été obtenu. L'isométamidium pur ainsi que les formulations commerciales Veridium® et Samorin® ont été dissous dans de l'eau distillée (10 mg / ml) et ont été conservés à -20°C avant utilisation.
(§3) Les trypanosomes sont ajoutés dans des plaques de culture cellulaire 96 puits incubées à 34 °C (T. congolense) ou à 37 °C (T. b. brucei) sous atmosphère de CO2 (4 %) pendant 4 heures avant l'ajout des composés qui ont été dilués en série 1/10^eme. 100 µl de chaque dilution ont été ensuite ajoutés à 100 µl de culture dans les puits (2 puits pour chaque dilution de 1 mg/ml jusqu'à 1.10^-19 mg/ml) puis le milieu est incubé à 34 °C (T. congolense) ou à 37 °C (T. b. brucei) sous atmosphère de CO2 (4 %) pendant 48 heures. Les IC50 (Concentration qui réduit de 50% la population parasitaire au bout de 48 heures de culture) ont été calculées en utilisant le logiciel de traitement de données Sigmaplot version 12.
(§4) Les souches T. congolense et T. b. brucei (formes sanguines), les différents composés et leur IC50 ont été, respectivement, cultivées in vitro, préparés et évaluées selon le protocole décrit dans l'exemple 1. Les puretés respectives pour chaque composé obtenu étaient de 97,6 % pour l'isomère bleu, 95,4% pour l'isomère rouge et 97,9 % pour le composé disubstitué.

The subject of experiment [2] is T. congolense. The description is as above. The experiment is classed as cell-based. The conditions noted are these: for IC50: 48 h exposure, 34 °C; for activité trypanocide inférieure à celle des formulations commerciales: versus Veridium and Samorin, 48 h, up to about.
Text: as §1, §2, §3, §4

In experiment [3] the test system is T. congolense. As to conditions: cattle, Finelle et al. 1963; cited from earlier work.
Experiment [4] relates to T. congolense. The conditions noted are these: mice, Brown et al. 1961; purity of compounds unsatisfactory; cited from earlier work.
Experiment [5] relates to T. congolense. The experiment is described as follows: In vivo curative and preventive activity in infected and monthly re-infected mice. Further details: species or system souris femelles swiss (CD1). As to conditions: for Nombre de souris avec une parasitemia positive: n=5; for activité curative et préventive (durée): dose 1 mg/kg. As for the experimental part: La souche T. congolense est cultivée et les différents composés sont préparés selon les protocoles de culture et de préparation décrits pour les tests in vitro (Exemples 1 et 2).
Des parasites de la souche de T. congolense ont été initialement propagés dans des souris femelles swiss (CD1) âgées de 8 semaines (200 mg/kg). Ces souris sont ensuite infectés par voie intrapéritonéale avec 10^5 trypanosomes de souche T. congolense dans un volume final de 200 µl de tampon phosphate glucose (137 mM NaCl, 10 mM phosphate, […], pH 7,4, 1% glucose). Les souris sont alors traitées par les composés à tester 24 heures après l'infection (5 souris traités par composé à tester + un groupe témoin). Chaque composé testé est injecté par voie intrapéritonéale et à des concentrations de 1 et 0,1 mg/kg de poids corporel dans un volume final de 100 µl d'eau stérile. Les souris témoins non traitées reçoivent 100 µl d'eau stérile après infection. La parasitémie a été évaluée 2 fois par semaine au microscope à partir d'échantillons de sang prélevés sur la veine caudale. Afin d'évaluer la persistance des composés, les souris qui étaient parasite-négatives après un mois ont été ré-infectées avec 10^5 trypanosomes. La réinfection a été répétée après le deuxième et troisième mois à partir de l'infection initiale et du traitement si les souris infectées étaient toujours aparasitémiques (sans parasites dans le sang). La réinfection a été réalisée avec des parasites provenant de souris témoins infectées de manière chronique pour éviter une réponse immunitaire immédiate due à la présence d'anticorps homologues anti-VSG. Deux souris non-traitées (Témoin) ont été infectées à chaque infection et réinfection. Le traitement a été considéré inefficace quand plus de 2 souris sur 5 dans un groupe étaient parasite-positives.

Where [6] appears, read: Trypanosoma brucei, read-out: IC50.
Where [7] appears, read: Trypanosoma congolense, read-out: IC50.

Consider `CC[n+]1c(-c2ccccc2)c2cc(N=NNc3cccc(C(=N)N)c3)ccc2c2ccc(N=NNc3cccc(C(=N)N)c3)cc21` [Composé disubstitué pur, 3,8-di-(3-m-amidinophenyltriazeno)-5-éthyl-6-phénylphénanthridium], for which the IC50 – broadly, the concentration that gives 50% inhibition – in experiment [1] was greater than 1 µg/mL; in experiment [1] (setting [6]), greater than 1 µg/mL; in experiment [2], 66,27 ± 14,37 ng/ml; in experiment [2] (setting [7]), 0.0663 µg/mL. For the same compound, the “protection / activité curative” value in experiment [3] is “permettait de protéger les bovins contre T. congolense, mais était dépourvu de toute activité curative”. Besides, in experiment [4], the activité trypanocide in-vivo result is recorded as “activité prophylactique et non curative”. In addition, the “Nombre de souris avec une parasitemia positive” value in experiment [5] (dose 0.1 mg/kg i.p., 1 mois) is recorded as 5; in experiment [5] (dose 1 mg/kg i.p., 1 mois), 0; in experiment [5] (dose 1 mg/kg i.p., 2 mois) it was 0; in experiment [5] (dose 1 mg/kg i.p., 3 mois, listed as Composé disubstitué, 1 mg/kg) it was 1; in experiment [5] (dose 1 mg/kg i.p., 3 mois, listed as composé disubstitué, 1 mg/kg) it was “seule une souris est parasite-positive”; in experiment [5] (dose 1 mg/kg i.p., 4 mois, listed as Composé disubstitué, 1 mg/kg) it was 4. Besides, the “Nombre de souris avec une parasitemia positive” value in experiment [5] (dose 1 mg/kg i.p., 4 mois, listed as composé disubstitué, 1 mg/kg) is recorded as “la seule souris parasite-négative”. The “activité curative et préventive (durée)” value in experiment [5] is listed as “pendant au moins trois mois”.
As for `CC[n+]1c(-c2ccccc2)c2c(N=Nc3cccc(C(=N)N)c3)c(N)ccc2c2ccc(N)cc21` [Isomère bleu, 7-(m-amidinophényldiazo)-3,8-diamino-5-éthyl-6-phényl phénanthridinium, reference compound], the IC50 is 12,01 ± 2,22 ng/ml in experiment [1], 0.012 µg/mL in experiment [1] (setting [6]), 7,11 ± 0,76 ng/ml in experiment [2] and 0.00711 µg/mL in experiment [2] (setting [7]). For the same compound, the “activité trypanocide inférieure à celle des formulations commerciales” value in experiment [2] is listed as no more than 10 fois. Further, the activité trypanocide in-vivo entry in experiment [4] is given as “activité trypanocide curative”. Besides, in experiment [5] (dose 0,1 mg/kg), the “protection des souris d'une infection (durée)” value is “ne sont actifs que pendant un mois”. The “Nombre de souris avec une parasitemia positive” value in experiment [5] (dose 0.1 mg/kg i.p., 1 mois) stood at 0; in experiment [5] (dose 0.1 mg/kg i.p., 2 mois) it was 5; in experiment [5] (dose 1 mg/kg i.p., 1 mois), 0; in experiment [5] (dose 1 mg/kg i.p., 2 mois), 4. The “activité curative et préventive (durée)” value in experiment [5] is on record as “n'est plus significative au bout de deux mois”.
With `CC[n+]1c(-c2ccccc2)c2cc(N)ccc2c2ccc(N=NNc3cccc(C(=N)N)c3)cc21` [Isomère rouge, 3-(3-m-amidinophényl-2-triazeno)-8-amino-5-éthyl-6-phénylphénanthridinium], the IC50 in experiment [1] is 202,15 ± 62,92 ng/ml; in experiment [1] (setting [6]), 0.202 µg/mL; in experiment [2] it was 3,63 ± 0,55 ng/ml; in experiment [2] (setting [7]), 0.00363 µg/mL. Besides, the “activité trypanocide inférieure à celles des compositions commerciales” value in experiment [1] (versus commercial compositions, 48 h) is roughly 20 fois. The “activité trypanocide inférieure à celle des formulations commerciales” value in experiment [2] is given as no more than 10 fois. In addition, the “Nombre de souris avec une parasitemia positive” value in experiment [5] (dose 0.1 mg/kg i.p., 1 mois) was found to be 0; in experiment [5] (dose 0.1 mg/kg i.p., 2 mois) it was 5; in experiment [5] (dose 1 mg/kg i.p., 1 mois), 0; in experiment [5] (dose 1 mg/kg i.p., 2 mois) it was 1; in experiment [5] (dose 1 mg/kg i.p., 3 mois) it was 5.
Consider `CC[n+]1c(-c2ccccc2)c2cc(N/N=N/c3cccc(C(=N)N)c3)ccc2c2ccc(N)cc21` [Isométamidium pur, 8-(3-m-amidinophényl-2-triazeno)-3-amino-5-éthyl-6-phénylphénanthridinium], for which the IC50 was 9,24 ± 2,13 ng/ml in experiment [1], 0.00924 µg/mL in experiment [1] (setting [6]), 0,56 ± 0,05 ng/ml in experiment [2] and 0.00056 µg/mL in experiment [2] (setting [7]). The “Nombre de souris avec une parasitemia positive” value in experiment [5] (dose 0.1 mg/kg i.p., 1 mois) is 0; in experiment [5] (dose 0.1 mg/kg i.p., 2 mois), 0; in experiment [5] (dose 0.1 mg/kg i.p., 3 mois), 0; in experiment [5] (dose 0.1 mg/kg i.p., 4 mois), 5; in experiment [5] (dose 1 mg/kg i.p., 1 mois) it was 0; in experiment [5] (dose 1 mg/kg i.p., 2 mois), 0. Besides, the “Nombre de souris avec une parasitemia positive” value in experiment [5] (dose 1 mg/kg i.p., 3 mois) amounted to 0; in experiment [5] (dose 1 mg/kg i.p., 4 mois) it was 5.
